Data on 69 compounds can be found in ChEMBL document CHEMBL3507680, “University of Dundee, Gates Library screen for HepG2 cell viability”.

SMILES strings stand for the structures.

This series in a line: Human HepG2 cell viability assay in 384 well format. It counts as toxicity, cell-based. More on the design: dose 125 nL, time 70.5 hour; cytotoxicity at 70.5 h: concentration not given beside the values. Conditions: HepG2 cells, read-out: Inhibition.
For `CC(=O)N1CCN(C(=O)CN2CCCC2Cn2nc(C)cc2C)CC1` (centres undefined), the cytotoxicity at 70.5 h was determined as 11.5%. For the compound `CC(C)CC(=O)N1CCN(c2cc(N(C)C)cnn2)CC1`, the cytotoxicity at 70.5 h was -3.64%. The value for `CC(C(=O)Nc1ccc(Cl)cn1)n1ccc(C(F)(F)F)n1` (centres undefined) was 1.33%; that for `CC(C)c1nnc2sc(CC3CCS(=O)(=O)C3)nn12` (centres undefined) was -7.56%; that for `NC1CCN(S(=O)(=O)c2ccc(C(=O)N3CCSCC3)cc2)C1` (centres undefined) was -9.37%. For the compound `Cc1cccnc1[C@H](C)NC(=O)Cc1cc2c(cc1Cl)OCCO2`, the cytotoxicity at 70.5 h amounted to 32.1%. As for `O=C1CCCCN1CCCC(=O)N1CCC2(CC1)[C@H](O)C[C@@H]2O`, the cytotoxicity at 70.5 h was -4.17%. With `COc1ccc(C(=O)Cn2cnnc2[S+](C)[O-])cc1Cl` (centres undefined), the cytotoxicity at 70.5 h is -3.44%.

Turning to `O=C(NCCc1ccccn1)[C@@]12CCO[C@@H]1CCN(C1CCC1)C2`, the cytotoxicity at 70.5 h is -6.9%. For `CCOc1ccc(N(CCC#N)C(=O)c2ccnc(SC)c2)cc1` the value was 9.66%. For `Cc1cccc(OCCNC(=O)CN2CCc3cncnc3C2)c1` the value was -7.19%; for `Cc1cc(C(=O)N2CC(=O)Nc3cnccc32)c(Cl)cc1F`, -1.87%; for `Cc1ccccc1C1(CNC(=O)CCN2C(=O)CCC2=O)CC1`, -12.8%. For `CCN(CC)S(=O)(=O)N1CCCC1c1nnc2n1CCCCC2` (centres undefined) the value was -8.56%; for `Cc1nc(CN(C)C2CCN(Cc3ccc(C(N)=O)cc3)C2)no1` (centres undefined), -11.2%; for `CCc1c(C)nc(N)nc1NCCSCc1[nH]cnc1C`, -2.58%. On to `Cc1nc(C)n(CC2CCCN(CCC(=O)NC3CCCC3)C2)n1` (centres undefined), for which the cytotoxicity at 70.5 h stood at 24.8%. As to `Cc1ccc(C(=O)N2C[C@@H]3CCN(c4cccnc4)C[C@@H]3C2)cn1`, the cytotoxicity at 70.5 h is -12.4%. For `CS(=O)(=O)NCCNC(=O)C1(c2ccc(F)cc2)CC1` the value was -0.0991%; for `O[C@H]1CN(c2nc(-c3ccccc3)no2)C[C@@H]1N1CCOCC1`, 6.13%. The value for `COc1cccc(-c2noc(C3CCN(Cc4cccs4)C3)n2)c1` (centres undefined) was 8.44%. For `Cc1cc(C[C@@H]2CCC[C@H]2NCc2cc(C)c(O)c(C)c2)on1` the value was 2.36%; for `CN1CC(c2ccccc2)C2(CCN(C(=O)c3cccn3C)CC2)C1=O` (centres undefined), 1.54%; for `Cc1cccn2c(=O)cc(OC(=O)c3ccccc3Cl)nc12`, -10.1%. Turning to `CN(C)C(=O)Cn1ccc2cc(NC(=O)N3CCOCC3)ccc21`, the cytotoxicity at 70.5 h was -5.35%.

As for `CCn1ccnc1CNCC1CCN(CC(O)c2ccccc2)CC1` (centres undefined), the cytotoxicity at 70.5 h was -11%.

Consider `CC(=O)N1CCC(c2nc3ccc(-c4cccc(F)c4)cn3n2)CC1`, for which the cytotoxicity at 70.5 h is -9.34%. For `Cc1cc(C(=O)N2CCCC2)ccc1NCCOCC(F)(F)F` the value was 9.16%. Consider `O=C(Cc1c(F)cccc1Cl)N1CCC(Nc2cccnn2)CC1`, for which the cytotoxicity at 70.5 h is -1.25%. The value for `CCc1ccc(NC(=O)N2C[C@H]3C[C@H](C(=O)NC4CCC4)[C@@H](C2)O3)cc1` was 8.99%; that for `NC(=O)N1CCCN(Cc2cc(F)cc(Br)c2)CC1` was -8.26%; that for `O=C(Cc1c[nH]c2ccccc12)N1CCC(Nc2cccnn2)CC1` was -10.3%. The value for `CN(C)C(=O)Cn1c(C2CC2)c(CN2CCOCC2)c2cccnc21` was -1.8%; that for `Cn1nc(Cn2cccc2)c2c1CN(Cc1ccoc1)C2` was 21.4%; that for `FC(F)(F)c1nc(NC2CCCCC2)c2ccccc2n1` was -10.5%. The value for `CN(C)c1ccc(CCCNC(=O)Nc2ccc(C#N)cc2)cc1` was 1.4%; that for `Cc1ccc(CNC(c2ccccc2)c2nccn2C)cc1` (centres undefined) was 22.4%. As for `Cc1noc(C)c1C(=O)N1C[C@@H]2CN(Cc3cccnc3)CCO[C@@H]2C1`, the cytotoxicity at 70.5 h was -7.03%. The value for `O=C(CCS(=O)(=O)C1CCCC1)N1CCCC(n2ccnc2)C1` (centres undefined) was 6.79%; that for `OC1(CNc2ccc(-c3nc(C4CC4)no3)cn2)CCCCC1` was 22%; that for `CC(C)CN1CC(C(=O)NCCOc2ccc3c(c2)OCO3)CC1=O` (centres undefined) was 3.51%. With `COc1cccc(OC)c1-c1ccnc2cc(CC(=O)NC3CC3)nn12`, the cytotoxicity at 70.5 h is -11%.

As to `CC(=O)NCc1ccc(-c2ccccc2C(=O)O)cn1`, the cytotoxicity at 70.5 h was -1.2%.

Take `CC(C)[C@@H]1CN(CC(=O)NCc2ccco2)C[C@H]1NS(=O)(=O)N(C)C`: the cytotoxicity at 70.5 h is -3.9%. For `COc1ccc(Cl)cc1CS(=O)(=O)Cc1nc(C2CC2)no1` the value was -5.91%; for `CCc1nc(COc2ccc(N(C)C(C)=O)cc2)no1`, 26%. Turning to `CC(C)(O)CCc1cccc(C(=O)NCCC2=CSC3=NCCCN23)c1`, the cytotoxicity at 70.5 h is -0.369%. For `CCN(CC)C1CCN(C(=O)NCc2cccc(-n3ccnc3)c2)C1` (centres undefined) the value was -6.04%. The value for `CN(CCSc1ccccc1)C(=O)C(c1cccnc1)N1CCOCC1` (centres undefined) was 33.5%; that for `N#Cc1cnc(NC2CCN(C(=O)C3CCCCC3)CC2)c(Cl)c1` was -0.508%. The value for `Cc1nc(-c2ccccc2F)sc1C(=O)N1CCN(C)CC1` was -10.6%; that for `Cc1cnn(CCCNC(=O)NC2CCN(CC(F)(F)F)C2=O)c1` (centres undefined) was -4.78%; that for `Cn1cc(C[C@H]2[C@H](N3CCOCC3)CCN2C(=O)c2ccco2)cn1` was 5.32%. With `O=C1NC2(CCN(C(=O)N3CCOCC3)CC2)CC1c1cccnc1` (centres undefined), the cytotoxicity at 70.5 h was 3.42%. Consider `CC(C)COCC1CN(C(=O)c2cscn2)Cc2ncn(C)c21` (centres undefined), for which the cytotoxicity at 70.5 h is -6.45%. With `CCCN1CC2(CCN(C)CC2)CC1C(=O)NCc1cc(C)nn1C` (centres undefined), the cytotoxicity at 70.5 h was -12.4%. Consider `Cc1nc2c(c(N(C)C)n1)CCN(C(=O)CN1CCC(O)CC1)C2`, for which the cytotoxicity at 70.5 h is -6.35%. The value for `Cc1cc(CN2CCC(CNC(=O)c3nccc4ccccc34)C2)[nH]n1` (centres undefined) was 9.66%; that for `COc1cc(C2C3=C(COC3=O)Nc3[nH]nc(C)c32)cc(Br)c1O` (centres undefined) was 2.06%; that for `Cc1ccc(F)cc1CC(=O)N1CC[C@@]2(O)CCNC[C@H]2C1` was -5.81%. `COCCN1CCC(CN(Cc2ccncc2)C2CCCCC2)CC1`: the cytotoxicity at 70.5 h is -6.59%.

Consider `Cc1cc(C)n(CC(C)NC(=O)C2(c3ccccc3F)CC2)n1` (centres undefined), for which the cytotoxicity at 70.5 h was -7.8%.

As to `Cc1ccc2[nH]c(CN(C)Cc3n[nH]c4c3CCC4)nc2c1`, the cytotoxicity at 70.5 h is -3.51%. For the compound `COCC(=O)N(Cc1cccnc1)CC1CCN(C2CCCC2)CC1`, the cytotoxicity at 70.5 h came out at 1.31%.

Turning to `COc1ccc(C(=O)N2CCC(Oc3ccccc3C)(C(=O)O)CC2)o1`, the cytotoxicity at 70.5 h was -3.87%. For `CN(Cc1nc2c(cnn2C)c(=O)[nH]1)Cc1ccccc1Cl` the value was -4.36%; for `CN(C)CCNC(=O)[C@H]1C[C@@H]2CN(C(=O)NC3CCCC3)C[C@H]1O2`, 5.4%. For `Cc1ccc2nc(CN3CCCC3c3cccnc3)cc(O)c2c1` (centres undefined) the value was -2.21%. For `CN(Cc1ccc(F)c2cccnc12)C1CCS(=O)(=O)C1` (centres undefined) the value was -9.82%.
